PubChem BioAssay (NCI)
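Following 48 hours of exposure in 96-well plates, responses at five concentrations were used to interpolate endpoints linearly. GI50: concentration for 50% inhibition of growth. TGI is the concentration that stops growth completely.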

Assays:
Test in all cases: NCI tumour cell line growth inhibition, 48 h
786-0 renal = tested on: 786-0 renal
A498 renal = tested on: A498 renal
A549 NSCLC = tested on: A549 NSCLC
ACHN renal = tested on: ACHN renal
CAKI-1 renal = tested on: CAKI-1 renal
CCRF-CEM leukemia = tested on: CCRF-CEM leukemia
COLO 205 colon = tested on: COLO 205 colon
DLD-1 colon = tested on: DLD-1 colon
DMS 114 small cell lung = tested on: DMS 114 small cell lung
DMS 273 small cell lung = tested on: DMS 273 small cell lung
EKVX NSCLC = tested on: EKVX NSCLC
HCC-2998 colon = tested on: HCC-2998 colon
HCT-116 colon = tested on: HCT-116 colon
HCT-15 colon = tested on: HCT-15 colon
HL-60(TB) leukemia = tested on: HL-60(TB) leukemia
HOP-18 NSCLC = tested on: HOP-18 NSCLC
HOP-62 NSCLC = tested on: HOP-62 NSCLC
HOP-92 NSCLC = tested on: HOP-92 NSCLC
HT29 colon = tested on: HT29 colon
IGROV1 ovarian = tested on: IGROV1 ovarian
K-562 leukemia = tested on: K-562 leukemia
KM12 colon = tested on: KM12 colon
KM20L2 colon = tested on: KM20L2 colon
LOX IMVI melanoma = tested on: LOX IMVI melanoma
LXFL 529 NSCLC = tested on: LXFL 529 NSCLC
M14 melanoma = tested on: M14 melanoma
M19-MEL melanoma = tested on: M19-MEL melanoma
MALME-3M melanoma = tested on: MALME-3M melanoma
MOLT-4 leukemia = tested on: MOLT-4 leukemia
NCI-H226 lung = tested on: NCI-H226 lung
NCI-H23 lung = tested on: NCI-H23 lung
NCI-H460 lung = tested on: NCI-H460 lung
NCI-H522 lung = tested on: NCI-H522 lung
OVCAR-3 ovarian = tested on: OVCAR-3 ovarian
OVCAR-4 ovarian = tested on: OVCAR-4 ovarian
OVCAR-5 ovarian = tested on: OVCAR-5 ovarian
OVCAR-8 ovarian = tested on: OVCAR-8 ovarian
RXF 393 renal = tested on: RXF 393 renal
RXF-631 renal = tested on: RXF-631 renal
SF-268 CNS = tested on: SF-268 CNS
SF-295 CNS = tested on: SF-295 CNS
SF-539 CNS = tested on: SF-539 CNS
SK-MEL-2 melanoma = tested on: SK-MEL-2 melanoma
SK-MEL-28 melanoma = tested on: SK-MEL-28 melanoma
SK-MEL-5 melanoma = tested on: SK-MEL-5 melanoma
SK-OV-3 ovarian = tested on: SK-OV-3 ovarian
SN12C renal = tested on: SN12C renal
SNB-19 CNS = tested on: SNB-19 CNS
SNB-75 CNS = tested on: SNB-75 CNS
SNB-78 CNS = tested on: SNB-78 CNS
SR leukemia = tested on: SR leukemia
SW-620 colon = tested on: SW-620 colon
TK-10 renal = tested on: TK-10 renal
U251 CNS = tested on: U251 CNS
UACC-257 melanoma = tested on: UACC-257 melanoma
UACC-62 melanoma = tested on: UACC-62 melanoma
UO-31 renal = tested on: UO-31 renal
XF 498 CNS = tested on: XF 498 CNS
MCF7 breast = tested on: MCF7 breast
NCI/ADR-RES ovarian = tested on: NCI/ADR-RES ovarian
P388 leukemia = tested on: P388 leukemia
P388/ADR leukemia = tested on: P388/ADR leukemia
RPMI-8226 leukemia = tested on: RPMI-8226 leukemia
SN12K1 renal = tested on: SN12K1 renal

CC1NOC(=O)C1N=Nc1ccc(Cl)cc1Cl (stereo not drawn)
TGI (786-0 renal): 41.9 µM | TGI (A498 renal): 99.5 µM | TGI (A549 NSCLC): 65.9 µM | TGI (ACHN renal): 55.5 µM | TGI (CAKI-1 renal): 60.9 µM | TGI (CCRF-CEM leukemia): > 100 µM | TGI (COLO 205 colon): 39 µM | TGI (DLD-1 colon): > 100 µM | TGI (DMS 114 small cell lung): 53.9 µM | TGI (DMS 273 small cell lung): 56.8 µM | TGI (EKVX NSCLC): 73.4 µM | TGI (HCC-2998 colon): 80.4 µM | TGI (HCT-116 colon): 52.5 µM | TGI (HCT-15 colon): 38.3 µM | TGI (HL-60(TB) leukemia): 44.8 µM | TGI (HOP-18 NSCLC): 50.4 µM | TGI (HOP-62 NSCLC): > 100 µM | TGI (HOP-92 NSCLC): 44.3 µM | TGI (HT29 colon): > 100 µM | TGI (IGROV1 ovarian): 85.7 µM | TGI (K-562 leukemia): 82.5 µM | TGI (KM12 colon): 32.6 µM | TGI (KM20L2 colon): > 100 µM | TGI (LOX IMVI melanoma): 66.1 µM | TGI (LXFL 529 NSCLC): 45.3 µM | TGI (M14 melanoma): 47.4 µM | TGI (M19-MEL melanoma): 64.3 µM | TGI (MALME-3M melanoma): 56.8 µM | TGI (MOLT-4 leukemia): 50.7 µM | TGI (NCI-H226 lung): 63.4 µM | TGI (NCI-H23 lung): 64.2 µM | TGI (NCI-H460 lung): 59.5 µM | TGI (NCI-H522 lung): 35.1 µM | TGI (OVCAR-3 ovarian): 36.9 µM | TGI (OVCAR-4 ovarian): 56.5 µM | TGI (OVCAR-5 ovarian): > 100 µM | TGI (OVCAR-8 ovarian): 72 µM | TGI (RXF 393 renal): 46.1 µM | TGI (RXF-631 renal): > 100 µM | TGI (SF-268 CNS): 81.7 µM | TGI (SF-295 CNS): 68.6 µM | TGI (SF-539 CNS): > 100 µM | TGI (SK-MEL-2 melanoma): 75 µM | TGI (SK-MEL-28 melanoma): > 100 µM | TGI (SK-MEL-5 melanoma): 73.2 µM | TGI (SK-OV-3 ovarian): 77.2 µM | TGI (SN12C renal): 49.1 µM | TGI (SNB-19 CNS): 55.8 µM | TGI (SNB-75 CNS): 46.5 µM | TGI (SNB-78 CNS): 69.2 µM | TGI (SR leukemia): 71.9 µM | TGI (SW-620 colon): 21.2 µM | TGI (TK-10 renal): 62.7 µM | TGI (U251 CNS): 38.5 µM | TGI (UACC-257 melanoma): 67.2 µM | TGI (UACC-62 melanoma): > 100 µM | TGI (UO-31 renal): 51 µM | TGI (XF 498 CNS): 45 µM

C=C(C#N)C(=O)OCC(CC)CC.C=C(C#N)C(=O)OCC(CC)CC.CS(C)=O.CS(C)=O.Nc1c(N=Nc2ccc(-c3ccc(N=Nc4cc(S(=O)(=O)[O-])c5ccccc5c4N)cc3)cc2)cc(S(=O)(=O)[O-])c2ccccc12.[Pt+2]
GI50 (A498 renal): > 71.4 µM | TGI (A498 renal): > 100 µM | GI50 (A549 NSCLC): > 86.8 µM | TGI (A549 NSCLC): > 100 µM | GI50 (CAKI-1 renal): 20.4 µM | TGI (CAKI-1 renal): 53.7 µM | GI50 (CCRF-CEM leukemia): 30.7 µM | TGI (CCRF-CEM leukemia): > 100 µM | GI50 (COLO 205 colon): 22.3 µM | TGI (COLO 205 colon): 45.6 µM | GI50 (DLD-1 colon): 28.2 µM | TGI (DLD-1 colon): > 77.8 µM | GI50 (DMS 273 small cell lung): 40.4 µM | TGI (DMS 273 small cell lung): > 100 µM | GI50 (EKVX NSCLC): 26 µM | TGI (EKVX NSCLC): 63.3 µM | GI50 (HCC-2998 colon): 48.9 µM | TGI (HCC-2998 colon): > 100 µM | GI50 (HCT-116 colon): > 65.2 µM | TGI (HCT-116 colon): > 100 µM | GI50 (HCT-15 colon): 33.2 µM | TGI (HCT-15 colon): > 69.3 µM | GI50 (HL-60(TB) leukemia): 15.8 µM | TGI (HL-60(TB) leukemia): 23.6 µM | GI50 (HOP-18 NSCLC): 22 µM | TGI (HOP-18 NSCLC): 53.9 µM | GI50 (HOP-62 NSCLC): > 82.8 µM | TGI (HOP-62 NSCLC): > 100 µM | GI50 (HOP-92 NSCLC): 19.6 µM | TGI (HOP-92 NSCLC): 45.4 µM | GI50 (HT29 colon): 27.2 µM | TGI (HT29 colon): > 69.7 µM | GI50 (IGROV1 ovarian): 29.4 µM | TGI (IGROV1 ovarian): > 100 µM | GI50 (K-562 leukemia): 32.6 µM | TGI (K-562 leukemia): > 100 µM | GI50 (KM12 colon): 46.6 µM | TGI (KM12 colon): > 100 µM | GI50 (KM20L2 colon): > 100 µM | TGI (KM20L2 colon): > 100 µM | GI50 (LOX IMVI melanoma): 35 µM | TGI (LOX IMVI melanoma): > 84.9 µM | GI50 (MALME-3M melanoma): 21.8 µM | TGI (MALME-3M melanoma): 50 µM | GI50 (MCF7 breast): 24.2 µM | TGI (MCF7 breast): > 100 µM | GI50 (MOLT-4 leukemia): 27.1 µM | TGI (MOLT-4 leukemia): > 91.3 µM | GI50 (NCI-H226 lung): 36.8 µM | TGI (NCI-H226 lung): > 74.1 µM | GI50 (NCI-H23 lung): 40.7 µM | TGI (NCI-H23 lung): > 100 µM | GI50 (NCI-H460 lung): 44.4 µM | TGI (NCI-H460 lung): > 100 µM | GI50 (NCI-H522 lung): 13.7 µM | TGI (NCI-H522 lung): 19.3 µM | GI50 (NCI/ADR-RES ovarian): 34 µM | TGI (NCI/ADR-RES ovarian): 91.7 µM | GI50 (OVCAR-3 ovarian): 25.9 µM | TGI (OVCAR-3 ovarian): > 58 µM | GI50 (OVCAR-4 ovarian): 33.7 µM | TGI (OVCAR-4 ovarian): 99.2 µM | GI50 (OVCAR-5 ovarian): > 78.4 µM | TGI (OVCAR-5 ovarian): > 100 µM | GI50 (OVCAR-8 ovarian): 19.2 µM | TGI (OVCAR-8 ovarian): 42.3 µM | GI50 (P388 leukemia): 29.6 µM | TGI (P388 leukemia): > 100 µM | GI50 (P388/ADR leukemia): 27.2 µM | TGI (P388/ADR leukemia): > 100 µM | GI50 (RPMI-8226 leukemia): 26.9 µM | TGI (RPMI-8226 leukemia): > 80.8 µM | GI50 (RXF 393 renal): 19.5 µM | TGI (RXF 393 renal): 51.1 µM | GI50 (SF-268 CNS): 24.9 µM | TGI (SF-268 CNS): 59.1 µM | GI50 (SF-295 CNS): 98.4 µM | TGI (SF-295 CNS): > 100 µM | GI50 (SF-539 CNS): 84.7 µM | TGI (SF-539 CNS): > 100 µM | GI50 (SK-MEL-2 melanoma): 21.2 µM | TGI (SK-MEL-2 melanoma): 50.4 µM | GI50 (SK-MEL-28 melanoma): 21.7 µM | TGI (SK-MEL-28 melanoma): 43 µM | GI50 (SK-MEL-5 melanoma): 34.1 µM | TGI (SK-MEL-5 melanoma): > 77.4 µM | GI50 (SK-OV-3 ovarian): 97.9 µM | TGI (SK-OV-3 ovarian): > 100 µM | GI50 (SN12C renal): 57.7 µM | TGI (SN12C renal): > 100 µM | GI50 (SN12K1 renal): 19.7 µM | TGI (SN12K1 renal): 40.1 µM | GI50 (SNB-19 CNS): > 100 µM | TGI (SNB-19 CNS): > 100 µM | GI50 (SNB-75 CNS): 65.4 µM | TGI (SNB-75 CNS): > 100 µM | GI50 (SNB-78 CNS): 38.8 µM | TGI (SNB-78 CNS): > 95.6 µM | GI50 (SW-620 colon): 25 µM | TGI (SW-620 colon): 46.2 µM | GI50 (U251 CNS): 46.7 µM | TGI (U251 CNS): > 100 µM | GI50 (UACC-257 melanoma): 17.4 µM | TGI (UACC-257 melanoma): 31.8 µM | GI50 (UACC-62 melanoma): 36.8 µM | TGI (UACC-62 melanoma): 97.4 µM | GI50 (UO-31 renal): > 100 µM | TGI (UO-31 renal): > 100 µM | GI50 (XF 498 CNS): 21.1 µM | TGI (XF 498 CNS): 40.9 µM
